Source: ChEMBL document CHEMBL1201862, “PubChem BioAssay data set” (2004)
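A five-concentration, 48-hour dose response in 96-well plates underlies each endpoint, interpolated linearly between surrounding concentrations. Abbreviation: GI50, concentration required for 50% inhibition of growth.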 The source made the active and inactive calls. No stated cut-off is given here; in the data, active = GI50 up to about 1.1 µM and inactive = higher.

What was measured:
Test in all cases: DTP human tumour cell line panel, 48 h
HL-60 = test system: HL-60
OVCAR-3 = test system: OVCAR-3
Malme-3M = test system: Malme-3M
MDA-MB-231 = test system: MDA-MB-231
IGROV-1 = test system: IGROV-1
OVCAR-8 = test system: OVCAR-8
UACC-62 = test system: UACC-62
NCI-H460 = test system: NCI-H460
SK-OV-3 = test system: SK-OV-3
K562 = test system: K562
CCRF-CEM = test system: CCRF-CEM
SW-620 = test system: SW-620
HCT-116 = test system: HCT-116
A498 = test system: A498
DU-145 = test system: DU-145
HOP-62 = test system: HOP-62
SR = test system: SR
KM12 = test system: KM12
SF-295 = test system: SF-295
OVCAR-4 = test system: OVCAR-4

Measured: GI50

CONC(C)=O
inactive: HL-60 > 100 µM | OVCAR-3 > 100 µM | Malme-3M > 100 µM | MDA-MB-231 > 100 µM | IGROV-1 > 100 µM | OVCAR-8 > 100 µM | UACC-62 > 100 µM | NCI-H460 > 100 µM | SK-OV-3 > 100 µM | K562 > 100 µM | CCRF-CEM > 100 µM | SW-620 > 100 µM | HCT-116 > 100 µM | A498 > 100 µM | DU-145 > 100 µM | HOP-62 > 100 µM | SR > 100 µM | KM12 > 100 µM | SF-295 > 100 µM

CCCCCCCCCCCCCCCCCc1nc(C#N)c(N)o1
inactive: HL-60 3.53 µM | MDA-MB-231 21 µM | IGROV-1 12.1 µM | OVCAR-8 13.8 µM | UACC-62 > 100 µM | SK-OV-3 > 100 µM | K562 22.7 µM | CCRF-CEM 2.28 µM | SW-620 > 100 µM | HCT-116 > 100 µM | A498 > 100 µM | DU-145 > 100 µM | HOP-62 > 100 µM | SR 7.89 µM | KM12 23.5 µM

COc1ccccc1-c1nc(O)c2ccccc2n1
inactive: OVCAR-3 > 100 µM | Malme-3M > 100 µM | MDA-MB-231 > 100 µM | IGROV-1 > 100 µM | OVCAR-8 > 100 µM | UACC-62 > 100 µM | NCI-H460 > 100 µM | SK-OV-3 > 100 µM | OVCAR-4 > 100 µM | CCRF-CEM > 100 µM | SW-620 > 100 µM | HCT-116 > 100 µM | A498 > 100 µM | DU-145 > 100 µM | HOP-62 > 100 µM | SR > 100 µM | KM12 > 100 µM | SF-295 > 100 µM

Cc1cc(NS(=O)(=O)c2ccc(Nc3c4ccccc4nc4c(C(=O)NCCO)cccc34)cc2)no1
inactive: HL-60 37.9 µM | OVCAR-3 21.9 µM | Malme-3M 28.1 µM | MDA-MB-231 17.9 µM | IGROV-1 25.1 µM | OVCAR-8 34.5 µM | UACC-62 20.2 µM | NCI-H460 28.6 µM | SK-OV-3 35.6 µM | K562 26.3 µM | OVCAR-4 29 µM | CCRF-CEM 15.2 µM | SW-620 22.6 µM | A498 30.1 µM | DU-145 34.7 µM | HOP-62 32.9 µM | SR 22.5 µM | KM12 23.9 µM | SF-295 38.7 µM

CCCC(=O)Oc1ccc2c(C)cc(=O)oc2c1OC(=O)CCC
inactive: OVCAR-3 32.4 µM | Malme-3M 24.3 µM | MDA-MB-231 42.6 µM | IGROV-1 45.7 µM | OVCAR-8 34.8 µM | UACC-62 60.3 µM | SK-OV-3 > 100 µM | K562 60 µM | OVCAR-4 > 100 µM | CCRF-CEM 13.9 µM | SW-620 40.1 µM | HCT-116 39.6 µM | A498 30.7 µM | DU-145 50.4 µM | HOP-62 71.3 µM | SR 48.4 µM | KM12 75.3 µM | SF-295 82.6 µM

C/N=C(\Nc1cccc(C(F)(F)F)c1)SCc1ccc(N=C=S)cc1
inactive: HL-60 40.6 µM | Malme-3M 14.7 µM | MDA-MB-231 11.2 µM | IGROV-1 16.4 µM | OVCAR-8 19.6 µM | UACC-62 11.8 µM | NCI-H460 12.9 µM | SK-OV-3 20.2 µM | K562 20 µM | OVCAR-4 13.3 µM | CCRF-CEM 23.4 µM | SW-620 20.2 µM | HCT-116 15.5 µM | A498 19.9 µM | DU-145 17.4 µM | HOP-62 17.5 µM | SR 4.34 µM | KM12 15.4 µM | SF-295 16 µM

O=C1c2n[nH]nc2C(=O)c2n[nH]nc21
inactive: HL-60 > 100 µM | OVCAR-3 > 100 µM | MDA-MB-231 > 100 µM | IGROV-1 > 66.4 µM | OVCAR-8 > 100 µM | UACC-62 > 100 µM | NCI-H460 > 100 µM | SK-OV-3 > 100 µM | K562 > 100 µM | OVCAR-4 > 100 µM | CCRF-CEM > 100 µM | SW-620 > 100 µM | HCT-116 > 100 µM | A498 > 100 µM | DU-145 > 100 µM | HOP-62 > 100 µM | SR > 100 µM | KM12 > 100 µM | SF-295 > 100 µM

CN(C)c1ccc2c3c(c(=O)oc2c1)CCC3
inactive: HL-60 26.9 µM | OVCAR-3 > 100 µM | MDA-MB-231 28.7 µM | IGROV-1 84.1 µM | OVCAR-8 64.4 µM | UACC-62 29.4 µM | NCI-H460 83.9 µM | K562 69.3 µM | OVCAR-4 > 100 µM | CCRF-CEM 75 µM | SW-620 > 100 µM | HCT-116 60.8 µM | A498 29.4 µM | DU-145 80.4 µM | HOP-62 44 µM | SR 42.6 µM | KM12 41.7 µM | SF-295 92.7 µM
